Literature values in patent publication US20130172186A1 (priority 2010, published 2013).
Read-outs that look alike come from different tables or passages of the source.

Assays:
[1] = test system: phytoalexins and phenols in potato tubers; conditions: tubers from treated plants after P. infestans challenge
P. cinnamomi = conditions: 40 μg/ml phosphonate in culture, 4 days later

## CCO[PH](=O)O [fosetyl-Al, aluminium tris(o-etyl phosphonate)]
P. nicotianae; in vivo
  observed instances in which pathogen growth was arrested at the local hypersensitive cell death sites: 86%
[1]
  increase of accumulation of phenols vs control tubers: fivefold
  increase of accumulation of phytoalexins vs control tubers: approximately tenfold

## phosphite
P. nicotianae; fosetyl-Al (100 μg/ml)- or phosphite (70 μg/ml)-treated tobacco seedlings, in 24 h
  observed instances in which pathogen growth was arrested at the local hypersensitive cell death sites: 86%

## phosphonate
P. cinnamomi
  P. cinnamomi growth inhibited: about 70%
